Data: patent US11208412B2 (DAEGU-GYEONGBUK MEDICAL INNOVATION FOUNDATION, priority 2017, dated 2021)

Columns and labels:
Assay in all cases: Kinase selectivity, DiscoverX scanMAX Kinase assay panel (% control)
Assay type in all cases: binding
[1] = molecular target: T1, kinases of the scanMAX Kinase assay panel (Homo sapiens, UniProt P54760); conditions: EPHB4; 1 uM
T1 construct: purchased DiscoverX Co. (contract measurement) scanMAX Kinase assay panel
T1 sequence (P54760 16-987): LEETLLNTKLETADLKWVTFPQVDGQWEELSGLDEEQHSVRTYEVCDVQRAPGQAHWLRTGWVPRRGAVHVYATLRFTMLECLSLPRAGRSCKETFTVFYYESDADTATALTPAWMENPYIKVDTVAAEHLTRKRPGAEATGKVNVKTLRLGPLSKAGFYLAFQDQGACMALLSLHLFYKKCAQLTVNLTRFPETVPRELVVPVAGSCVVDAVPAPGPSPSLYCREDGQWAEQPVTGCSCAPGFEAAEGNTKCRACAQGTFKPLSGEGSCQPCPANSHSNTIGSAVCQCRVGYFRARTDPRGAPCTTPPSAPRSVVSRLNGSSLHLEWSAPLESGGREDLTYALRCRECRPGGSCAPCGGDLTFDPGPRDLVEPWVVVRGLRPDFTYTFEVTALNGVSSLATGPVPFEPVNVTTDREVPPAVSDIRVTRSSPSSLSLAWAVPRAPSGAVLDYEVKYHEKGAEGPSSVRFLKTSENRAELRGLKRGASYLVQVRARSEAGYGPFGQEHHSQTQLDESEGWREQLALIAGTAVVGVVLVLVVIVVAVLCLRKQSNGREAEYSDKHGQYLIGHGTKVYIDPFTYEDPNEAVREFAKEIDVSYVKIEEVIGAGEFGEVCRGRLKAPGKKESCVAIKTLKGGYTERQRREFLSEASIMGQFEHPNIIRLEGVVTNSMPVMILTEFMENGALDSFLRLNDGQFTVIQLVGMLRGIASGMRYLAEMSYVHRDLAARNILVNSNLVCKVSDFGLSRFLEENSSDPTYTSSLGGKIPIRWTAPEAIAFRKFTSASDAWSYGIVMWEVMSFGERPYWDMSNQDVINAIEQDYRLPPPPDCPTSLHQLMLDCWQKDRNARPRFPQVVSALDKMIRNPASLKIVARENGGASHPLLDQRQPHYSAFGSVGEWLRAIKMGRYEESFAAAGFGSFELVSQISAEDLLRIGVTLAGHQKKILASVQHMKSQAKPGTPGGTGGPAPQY
Experimental: (§1) The following experiment was performed to evaluate the activity of the compounds of the present invention to inhibit many enzymes.
(§2) Particularly, the compounds of Examples 8, 64 and 104 were selected among all of those compounds of the invention. DiscoverX Co. was asked to measure the enzyme (kinase) selectivity, and the experiment was performed using scanMAX™ Kinase assay panel.
(§3) Wherein, the concentration of the drug treated to each enzyme was 1 uM in DMSO and the control percentage (% control) was determined by the following Equation 1. (example compound−positive control)/(negative control−positive control)×100 [Equation 1]
(§4) Herein, the positive control indicates the compound showing the % control of 0%, and the negative control indicates DMSO showing the % control of 100%. The enzyme selectivity in the present invention is defined as follows: When the % control for each enzyme is less than 35% (<35%), it is judged that the compound has the activity to the corresponding enzyme.

[2] = molecular target: T2, kinases of the scanMAX Kinase assay panel (Homo sapiens, UniProt Q32MK0); conditions: MLCK; 1 uM
T2 construct: purchased DiscoverX Co. (contract measurement) scanMAX Kinase assay panel
T2 sequence (Q32MK0 1-819): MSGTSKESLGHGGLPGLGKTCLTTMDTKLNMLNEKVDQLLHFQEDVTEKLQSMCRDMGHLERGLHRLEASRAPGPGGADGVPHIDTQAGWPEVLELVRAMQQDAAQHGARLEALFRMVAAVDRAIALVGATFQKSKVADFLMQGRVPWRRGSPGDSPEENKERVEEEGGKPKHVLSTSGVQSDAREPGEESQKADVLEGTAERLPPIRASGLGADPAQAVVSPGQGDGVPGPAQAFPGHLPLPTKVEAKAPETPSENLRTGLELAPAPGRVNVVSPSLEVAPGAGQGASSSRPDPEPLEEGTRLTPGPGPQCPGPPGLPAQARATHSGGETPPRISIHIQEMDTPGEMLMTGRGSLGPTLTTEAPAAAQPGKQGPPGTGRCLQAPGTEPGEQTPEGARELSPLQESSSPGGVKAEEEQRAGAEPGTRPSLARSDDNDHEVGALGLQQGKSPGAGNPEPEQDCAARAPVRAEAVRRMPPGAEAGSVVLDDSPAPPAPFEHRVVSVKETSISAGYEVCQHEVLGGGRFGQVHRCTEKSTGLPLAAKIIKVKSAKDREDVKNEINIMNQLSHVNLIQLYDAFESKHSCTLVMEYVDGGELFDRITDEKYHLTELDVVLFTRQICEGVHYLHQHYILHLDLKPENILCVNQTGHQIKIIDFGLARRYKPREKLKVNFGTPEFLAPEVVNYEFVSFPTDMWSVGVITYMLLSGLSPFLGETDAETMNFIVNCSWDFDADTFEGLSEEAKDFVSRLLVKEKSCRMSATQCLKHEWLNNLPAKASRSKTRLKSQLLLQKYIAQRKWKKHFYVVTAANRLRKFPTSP
Experimental: as §1, §2, §3, §4

[3] = molecular target: T3, kinases of the scanMAX Kinase assay panel (Homo sapiens, UniProt Q99755); conditions: PIP5K1A; 1 uM
T3 construct: purchased DiscoverX Co. (contract measurement) scanMAX Kinase assay panel
T3 sequence (Q99755 whole entry): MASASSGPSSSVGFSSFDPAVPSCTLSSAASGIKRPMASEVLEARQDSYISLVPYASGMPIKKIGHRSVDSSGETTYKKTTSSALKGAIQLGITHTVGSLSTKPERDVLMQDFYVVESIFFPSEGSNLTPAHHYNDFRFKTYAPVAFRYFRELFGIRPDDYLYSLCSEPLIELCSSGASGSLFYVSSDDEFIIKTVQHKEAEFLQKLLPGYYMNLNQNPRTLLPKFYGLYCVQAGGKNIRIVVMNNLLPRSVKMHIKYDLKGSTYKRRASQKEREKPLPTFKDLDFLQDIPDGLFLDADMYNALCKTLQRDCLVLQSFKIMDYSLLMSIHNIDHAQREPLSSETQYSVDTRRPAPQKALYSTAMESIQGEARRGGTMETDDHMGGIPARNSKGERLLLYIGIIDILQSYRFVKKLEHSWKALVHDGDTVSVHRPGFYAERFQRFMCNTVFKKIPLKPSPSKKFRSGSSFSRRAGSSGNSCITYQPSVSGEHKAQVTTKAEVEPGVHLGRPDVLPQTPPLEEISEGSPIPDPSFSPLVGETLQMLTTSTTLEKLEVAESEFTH
Experimental: as §1, §2, §3, §4

[4] = test system: kinases of the scanMAX Kinase assay panel; conditions: 1 uM
Experimental: as §1, §2, §3, §4

Row | Compound | remaining binding at 1 µM [1] | remaining binding at 1 µM [2] | remaining binding at 1 µM [3] | % control ([4]; EGFR(L747-E749de1, A750P)) | % control ([4]; EGFR(L747-S752de1, P753S)) | % control ([4]; EGFR(L747-T751de1, Sins)) | % control ([4]; EPHAl) | % control ([4]; FLT3(ITD)) | % control ([4]; FLT3(ITD, D835V)) | % control ([4]; FLT3(ITD, F691L))
1 | CNc1nc(Nc2ccc(C(=O)N3CCOCC3)cc2OC)nc2[nH]cc(C#N)c12 [Example 1, 2-((2-methoxy-4-(morpholine-4-carbonyl)phenyl)amino)-4-(methylamino)-7H-pyrrolo[2,3-d]pyrimidine-5-carbonitrile] | 95% | 96% | 99% | 98.0% | 100.0% | 61.0% | 93.0% | 83.0% | 51.0% | 47.0%
2 | CC1(Nc2nc(Nc3cnn([C@H]4CCN(C5COC5)C[C@@H]4F)c3Cl)nc3[nH]cc(C#N)c23)CC1 [Example 52, 2-((5-chloro-1-((3S,4S)-3-fluoro-1-(oxetane-3-yl)piperidine-4-yl)-1H-pyrazole-4-yl)amino)((1-methylcyclopropyl)amino)-7H-pyrrolo[2,3-d]pyrimidine-5-carbonitrile] | 48% | 9% | 2.5% | 38% | 49% | 68% | 58% | 0% | 0% | 0.7%
3 | CCNc1nc(Nc2ccc(C(=O)N3CCC(N4CCOCC4)CC3)cc2OC)nc2[nH]cc(C(F)(F)F)c12 [Example 104, (4-((4-(ethylamino)-5-(trifluoromethyl)-7H-pyrrolo[2,3-d]pyrimidine-2-yl)amino)-3-methoxyphenyl)(4-morpholinopiperidine-1-yl)methanone] | 100% | 92% | 100% | 99% | 98% | 100% | 100% | 21% | 15% | 79%
